In paper PMC3213090, “Phytophthora sojae Avirulence Effector Avr3b is a Secreted NADH and ADP-ribose Pyrophosphorylase that Modulates Plant Immunity” (PLoS Pathogens, 2011):

Key:
[1] = target: T1, FLAG:Avr3b^P6497 (Avh307^P6497) (Phytophthora sojae, UniProt E0W4V8); test: phosphate release coupled to calf alkaline phosphatase, molybdate A820; format: biochemical; conditions: 2 mM substrate, 5 mM MgCl2, 1 mM DTT, pH 8.5, 37 C; immunoprecipitate, not homogeneous
T1 construct: gene Avh; signal peptide replaced by N-terminal FLAG tag; 34-35 kDa; precursor 315 residues; Nicotiana benthamiana agroinfiltration (PVX vector pGR107), anti-FLAG immunoprecipitated, 3xFLAG eluted
T1 sequence (E0W4V8 entry or part of it): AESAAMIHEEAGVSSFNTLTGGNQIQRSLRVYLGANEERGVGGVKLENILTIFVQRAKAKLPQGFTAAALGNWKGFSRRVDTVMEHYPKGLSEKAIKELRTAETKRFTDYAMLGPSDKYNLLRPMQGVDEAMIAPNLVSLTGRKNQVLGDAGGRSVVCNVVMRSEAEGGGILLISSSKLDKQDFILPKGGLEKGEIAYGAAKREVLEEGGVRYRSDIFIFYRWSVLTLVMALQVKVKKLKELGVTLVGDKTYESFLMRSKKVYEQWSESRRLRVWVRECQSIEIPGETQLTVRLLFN

FLAG:AtNUDT7 = target: T2, FLAG:AtNUDT7 (Arabidopsis thaliana, UniProt Q9SU14); test: as above; format: biochemical; conditions: 2 mM substrate, 5 mM MgCl2, 1 mM DTT, pH 8.5, 37 C; immunoprecipitate, not homogeneous
T2 construct: gene NUDT7; FLAG tag fused; Nicotiana benthamiana transient expression, anti-FLAG immunoprecipitated, eluted
T2 sequence (Q9SU14 1-282): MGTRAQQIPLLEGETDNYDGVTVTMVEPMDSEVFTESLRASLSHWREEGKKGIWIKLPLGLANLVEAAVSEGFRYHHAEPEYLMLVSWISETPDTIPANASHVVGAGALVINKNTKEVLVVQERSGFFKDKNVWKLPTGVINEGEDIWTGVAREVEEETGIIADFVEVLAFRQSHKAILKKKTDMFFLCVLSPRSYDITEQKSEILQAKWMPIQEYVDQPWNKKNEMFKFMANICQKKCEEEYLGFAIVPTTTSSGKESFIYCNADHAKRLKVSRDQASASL

Row | SMILES | relative hydrolase activity (ratio over GFP) [1] | relative hydrolase activity (ratio over GFP) (FLAG:AtNUDT7)
1 | NC(=O)C1=CN([C@@H]2O[C@H](COP(=O)(O)OP(=O)(O)OC[C@H]3O[C@@H](n4cnc5c(N)ncnc54)[C@H](O)[C@@H]3O)[C@@H](O)[C@H]2O)C=CC1 [NADH] | FLAG:AtNUDT7 and FLAG:Avr3b^P6497 immunoprecipitates could both hydrolyze ADPR and NADH | FLAG:AtNUDT7 and FLAG:Avr3b^P6497 immunoprecipitates could both hydrolyze ADPR and NADH
2 | Nc1ncnc2c1ncn2[C@@H]1O[C@H](COP(=O)(O)OP(=O)(O)OC[C@H]2OC(O)[C@H](O)[C@@H]2O)[C@@H](O)[C@H]1O (stereo partly shown) [ADP-ribose] | FLAG:AtNUDT7 and FLAG:Avr3b^P6497 immunoprecipitates could both hydrolyze ADPR and NADH | FLAG:AtNUDT7 and FLAG:Avr3b^P6497 immunoprecipitates could both hydrolyze ADPR and NADH
